Experimental data published in US20100324067A1, “TETRACYCLIC DIPYRANO-COUMARIN COMPOUNDS WITH ANTI-HIV AND ANTI-MYCOBACTERIUM TUBERCULOSIS ACTIVITIES” (priority 2007, published 2010).
In brackets after ≈: the same amount, converted by molar mass. Like-named read-outs stand apart in the source and are kept apart here.

What was measured:
[1] = system: HIV-1; assay: Inhibitory activity against HIV-1 (literature method, Chen et al. J Virol 1997); conditions: Human immunodeficiency virus 1, read-out: Anti-HIV (%, 1.0 μM)
Procedure: Inhibitory activity of the coumarin derivatives of the present invention against HIV-1.
Inhibitory activity of the compounds against HIV-1 is assayed using the literature method. The experimental conditions, procedures, reagents and so on of the experiment are referred to the reference of “ZHIWEI CHEN, PEI ZHOU, DAVID D. HO, et al. Genetically divergent strains of simian immuno-deficiency virus use CCR5 as a coreceptor for entry. Journal of Virology, 1997, 71(4): 2705-2714”.

[2] = system: Mycobacterium tuberculosis H37Rv (ATCC 27294); assay: Microplate Alamar Blue Assay (MABA) in BACTEC 12B medium (TAACF screen); assay type: cell-based
[3] = read-out: anti-TB active compound (MIC90 less than 10 μg/mL), classification

Q: With `CCCc1cc(=O)oc2c3c(c4c(c12)OC(C)(C)C=C4)OC(C)CC3=O` (stereo not shown) [Example 11, 6,6,10-trimethyl-4-n-propyl-2H,6H,12H-benzo[1,2-b:3,4-b′:5,6-b″]-tripyranyl-2,12-dione] as the molecule, how does the inhibition at 1 µM [1] read?
A: Its inhibition at 1 µM is 73.1%.

Q: Which inhibition at 1 µM [1] does the source give for `CCCc1c(F)c(=O)oc2c3c(c4c(c12)OC(C)(C)C=C4)OC(C)CC3=O` (stereo not shown) [Example 31, 6,6,10-trimethyl-3-fluoro-4-n-propyl-2H,6H,12H-benzo[1,2-b:3,4-b′:5,6-b″]-tripyranyl-2,12-dione] here?
A: Its inhibition at 1 µM is 45.3%.

Q: For `CCCc1cc(=O)oc2c3c(c4c(c12)OC(C)(C)C=C4)OC(c1ccccc1)CC3=O` (stereo not shown) [Example 16, 6,6-dimethyl-4-n-propyl-10-phenyl-2H,6H,12H-benzo[1,2-b:3,4-b′:5,6-b″]-tripyranyl-2,12-dione], which inhibition at 1 µM [1] is on record?
A: The inhibition at 1 µM was 62.7%.

Q: And the IC50 [2]?
A: The IC50 was 2.91 µg/mL (≈ 6.99 µM).

Q: What about the MIC90 ([2]; MABA, H37Rv, read-out: MIC90) of the same molecule?
A: The MIC90 was over 100 µg/mL.

Q: Which IC50 ([2]; MABA, H37Rv, read-out: IC50) does the source give for `CCc1c(F)c(=O)oc2c3c(c4c(c12)OC(c1ccccc1)C=C4)OC(C)CC3=O` (stereo not shown) [Example 42, 10-methyl-4-ethyl-6-phenyl-3-fluoro-2H,6H,12H-benzo[1,2-b:3,4-b′:5,6-b″]-tripyranyl-2,12-dione] here?
A: Its IC50 is 5.56 µg/mL (≈ 13.7 µM).

Q: What about the MIC90 ([2]; MABA, H37Rv, read-out: MIC90) of the same molecule?
A: The MIC90 was 6.81 µg/mL (≈ 16.7 µM).

Q: What about the MIC90 [2, 3] of the same molecule?
A: Its MIC90 is under 10 µg/mL.

Q: What about the melting point of the same molecule?
A: The melting point was 109 to 111 °C.

Q: With `CCCCC1C=Cc2c3c(c4oc(=O)c(F)c(CC)c4c2O1)C(=O)CC(C)O3` (stereo not shown) [Example 40] as the molecule, how does the IC50 ([2]; MABA, H37Rv, read-out: IC50) read?
A: The IC50 was 1.58 µg/mL (≈ 4.1 µM).

Q: What about the MIC90 ([2]; MABA, H37Rv, read-out: MIC90) of the same molecule?
A: The MIC90 was 2.47 µg/mL (≈ 6.39 µM).

Q: And the MIC90 [2, 3]?
A: The MIC90 was under 10 µg/mL.

Q: And the melting point?
A: The melting point was 142 to 143 °C.

Q: For `CCCc1cc(=O)oc2c3c(c4c(c12)OC(c1ccccc1)C=C4)OCC(C)C3=O` (stereo not shown) [Example 78, 4-n-propyl-6-phenyl-11-methyl-2H,6H,12H-benzo[1,2-b:3,4-b′:5,6-b″]-tripyranyl-2,12-dione], which IC50 ([2]; MABA, H37Rv, read-out: IC50) is on record?
A: Its IC50 is 99 µg/mL (≈ 246 µM).

Q: What about the MIC90 ([2]; MABA, H37Rv, read-out: MIC90) of the same molecule?
A: The MIC90 was over 100 µg/mL.

Q: What about the melting point of the same molecule?
A: The melting point was 187 to 189 °C.

Q: Which results are given for `CCCc1cc(=O)oc2c3c(c4c(c12)OC(c1ccccc1)C=C4)OC(C)CC3=O` (stereo not shown) [Example 41, 10-methyl-4-n-propyl-6-phenyl-2H,6H,12H-benzo[1,2-b:3,4-b′:5,6-b″]-tripyranyl-2,12-dione]?
A: IC50 ([2]; MABA, H37Rv, read-out: IC50): 2.92 µg/mL (≈ 7.25 µM); MIC90 ([2]; MABA, H37Rv, read-out: MIC90): 3.27 µg/mL (≈ 8.12 µM); MIC90 [2, 3]: < 10 µg/mL; melting point: 96 to 99 °C

Q: With `CCCc1cc(=O)oc2c3c(c4c(c12)OC(CCC)C=C4)OCC(C)C3=O` (stereo not shown) [Example 51] as the molecule, how does the IC50 ([2]; MABA, H37Rv, read-out: IC50) read?
A: Its IC50 is under 0.2 µg/mL.

Q: And the MIC90 ([2]; MABA, H37Rv, read-out: MIC90)?
A: The MIC90 was 0.496 µg/mL (≈ 1.35 µM).

Q: What about the MIC90 [2, 3] of the same molecule?
A: The MIC90 was under 10 µg/mL.

Q: What about the melting point of the same molecule?
A: The melting point was 148 to 150 °C.

Q: Which results are given for `Cc1cc(=O)oc2c3c(c4c(c12)OC(C)(C)C=C4)OC(C)CC3=O` (stereo not shown) [Example 1, 4,6,6,10-tetramethyl-2H,6H,12H-benzo[1,2-b:3,4-b′:5,6-b″]-tripyranyl-2,12-dione]?
A: IC50 ([2]; MABA, H37Rv, read-out: IC50): 39.2 µg/mL (≈ 120 µM); MIC90 ([2]; MABA, H37Rv, read-out: MIC90): 59.5 µg/mL (≈ 182 µM); melting point: 213 to 215 °C

Q: What does the source list for `CC1CC(=O)c2c(c3c(c4c5c(c(=O)oc24)CCC5)OC(C)(C)C=C3)O1` (stereo not shown) [Example 26, 6,6,10-trimethyl-3,4-cyclopentyl-2H,6H,12H-benzo[1,2-b:3,4-b′:5,6-b″]-tripyranyl-2,12-dione]?
A: IC50 ([2]; MABA, H37Rv, read-out: IC50): 23.9 µg/mL (≈ 67.8 µM); MIC90 ([2]; MABA, H37Rv, read-out: MIC90): 43.6 µg/mL (≈ 124 µM); melting point: 108 to 109 °C

Q: With `Cc1c(C)c2c3c(c4c(c2oc1=O)C(=O)CC(C)O4)C=CC(C)(C)O3` (stereo not shown) [Example 2, 3,4,6,6,10-pentamethyl-2H,6H,12H-benzo[1,2-b:3,4-b′:5,6-b″]-tripyranyl-2,12-dione] as the molecule, how does the IC50 ([2]; MABA, H37Rv, read-out: IC50) read?
A: Its IC50 is 20.3 µg/mL (≈ 59.7 µM).

Q: What about the MIC90 ([2]; MABA, H37Rv, read-out: MIC90) of the same molecule?
A: Its MIC90 is 35.2 µg/mL (≈ 103 µM).

Q: And the melting point?
A: The melting point was 142 to 144 °C.

Q: Which IC50 ([2]; MABA, H37Rv, read-out: IC50) does the source give for `CCc1c(F)c(=O)oc2c3c(c4c(c12)OC(CC)C=C4)OC(C)CC3=O` (stereo not shown) [Example 55, 10-methyl-4,6-diethyl-3-fluoro-2H,6H,12H-benzo[1,2-b:3,4-b′:5,6-b″]-tripyranyl-2,12-dione] here?
A: The IC50 was under 0.2 µg/mL.

Q: And the MIC90 ([2]; MABA, H37Rv, read-out: MIC90)?
A: Its MIC90 is 1.07 µg/mL (≈ 2.99 µM).

Q: What about the MIC90 [2, 3] of the same molecule?
A: Its MIC90 is under 10 µg/mL.

Q: What about the melting point of the same molecule?
A: The melting point was 144 to 146 °C.

Q: Which IC50 ([2]; MABA, H37Rv, read-out: IC50) does the source give for `CCCCc1cc(=O)oc2c3c(c4c(c12)OC(CCCC)C=C4)OC(C)CC3=O` (stereo not shown) [Example 38] here?
A: The IC50 was 10.4 µg/mL (≈ 26.3 µM).

Q: And the MIC90 ([2]; MABA, H37Rv, read-out: MIC90)?
A: The MIC90 was 14.4 µg/mL (≈ 36.4 µM).

Q: And the melting point?
A: Its melting point is 146 to 148 °C.

Q: With `CCCc1c(F)c(=O)oc2c3c(c4c(c12)OC(CCC)C=C4)OC(C)CC3=O` (stereo not shown) [Example 32, 10-methyl-3-fluoro-4,6-di(-n-propyl)-2H,6H,12H-benzo[1,2-b:3,4-b′:5,6-b″]-tripyranyl-2,12-dione] as the molecule, how does the IC50 ([2]; MABA, H37Rv, read-out: IC50) read?
A: The IC50 was 78.3 µg/mL (≈ 203 µM).

Q: What about the MIC90 ([2]; MABA, H37Rv, read-out: MIC90) of the same molecule?
A: The MIC90 was over 100 µg/mL.

Q: And the melting point?
A: Its melting point is 123 to 124 °C.

Q: For `CCCc1cc(=O)oc2c(-c3cccn3Cc3ccccn3)c(O)c3c(c12)OC(C)(C)C=C3` [Example 68, 5-hydroxy-6-(1′-(2-pyridyl)methylene-1′H-pyrrolyl-2′-ene)-2,2-dimethyl-10-n-propyl-2H-benzo-[2,3-f]-pyranyl-8-one], which IC50 ([2]; MABA, H37Rv, read-out: IC50) is on record?
A: Its IC50 is 33 µg/mL (≈ 74.6 µM).

Q: And the MIC90 ([2]; MABA, H37Rv, read-out: MIC90)?
A: The MIC90 was 44.9 µg/mL (≈ 101 µM).

Q: And the melting point?
A: The melting point was 171 to 173 °C.
